Experiments:
eastern black nightshade = assay: Test C pre-/postemergence test; type: in vivo, Solanum ptycanthum
In short: (§1)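 Compounds in a non-phytotoxic solvent with surfactant applied preemergence to seeded pots and, at the same time, postemergence to plants 2–18 cm tall (1- to 4-leaf stage). Paddy tests: pots flooded to 3 cm, compound applied into the water, depth held throughout.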

Surinam grass = assay: Test C pre-/postemergence test; type: in vivo, Brachiaria decumbens; settings: for Surinam Grass plant response rating: preemergence, scale 0 (no effect) to 100 (complete control)
In short: as §1

giant foxtail [1] = assay: Test C pre-/postemergence test; type: in vivo, Setaria faberii
In short: as §1

duck salad = assay: Test C flooded paddy test; type: in vivo, Heteranthera limosa; settings: Flood
In short: (§2)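 Ratings were visual and made relative to untreated controls after 13 to 15 greenhouse days.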

Goosegrass = assay: Test C pre-/postemergence test; type: in vivo, Eleusin indica
In short: as §1

johnsongrass = assay: Test C pre-/postemergence test; type: in vivo, Sorghum halepense
In short: as §1

redroot pigweed = assay: Test A pre-/postemergence greenhouse test; type: in vivo, Amaranthus retroflexus; settings: for Plant response rating, Pigweed: 0 to 100 scale where 0 is no effect and 100 is complete control; for Pigweed plant response rating: 0 to 100 scale
In short: (§3)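 Herbicidal effect is a visual injury score given about ten days post-treatment by comparison with untreated controls. Preemergence plots received a directed spray onto sown loam–sand soil; postemergence plants, at the one- to two-leaf stage and 2–10 cm tall, were sprayed at the same time.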

wheat = assay: Test A pre-/postemergence greenhouse test; type: in vivo, Triticum aestivum; settings: for Plant response rating, Wheat: 0 to 100 scale where 0 is no effect and 100 is complete control; for Wheat plant response rating: 0 to 100 scale
In short: as §3

common ragweed = assay: Test C pre-/postemergence test; type: in vivo, Ambrosia elation
In short: as §1

giant foxtail [2] = assay: Test A pre-/postemergence greenhouse test; type: in vivo, Setaria faberi; settings: for Plant response rating, Foxtail, Giant: 0 to 100 scale where 0 is no effect and 100 is complete control; for Foxtail, Giant plant response rating: 0 to 100 scale
In short: as §3

velvetleaf [3] = assay: Test A pre-/postemergence greenhouse test; type: in vivo, Abutilon theophrasti; settings: for Plant response rating, Velvetleaf: 0 to 100 scale where 0 is no effect and 100 is complete control; for Velvetleaf plant response rating: 0 to 100 scale
In short: as §3

corn = assay: Test A pre-/postemergence greenhouse test; type: in vivo, Zea mays; settings: for Plant response rating, Corn: 0 to 100 scale where 0 is no effect and 100 is complete control; for Corn plant response rating: 0 to 100 scale
In short: as §3

lambsquarters = assay: Test C pre-/postemergence test; type: in vivo, Chenopodium album
In short: as §1

wild oat = assay: Test C pre-/postemergence test; type: in vivo, Avena fatua
In short: as §1

barnyardgrass = assay: Test C flooded paddy test; type: in vivo, Echinochloa crus-galli; settings: Flood
In short: as §2

bermudagrass = assay: Test C pre-/postemergence test; type: in vivo, Cynodon dactylon
In short: as §1

rice = assay: Test C flooded paddy test; type: in vivo, Oryza sativa; settings: Flood
In short: as §2

velvetleaf [4] = assay: Test C pre-/postemergence test; type: in vivo, Abutilon theophrasti
In short: as §1

[5] = 62 g ai/ha, Preemergence, scale 0 to 100
[6] = 125 g ai/ha, preemergence, scale 0 (no effect) to 100 (complete control)
[7] = Preemergence, 31 g ai/ha, scale 0 to 100 (0 no effect, 100 complete control)
[8] = preemergence, 250 g ai/ha, scale 0 (no effect) to 100 (complete control)
[9] = 62 g ai/ha, scale 0 to 100 (0 no effect, 100 complete control)
[10] = 250 g ai/ha, scale 0 to 100, 0 no effect, 100 complete control, 13 to 15 days
[11] = Postemergence, 500 g ai/ha, 0 is no effect, 100 is complete control
[12] = Preemergence, 125 g ai/ha, 0 no effect, 100 complete control

With `Cn1nc(C(F)(F)F)c(CS(=O)(=O)c2ccc(Cl)c[n+]2[O-])c1OCC(F)(F)F` [Compound 73] the “Nightshade plant response rating” value (eastern black nightshade; [5]) was 80, the “Nightshade plant response rating” value (eastern black nightshade; [6]) was 80 and the “Plant response rating, Nightshade” value (eastern black nightshade; [7]) was 0. For the same molecule, the “Nightshade plant response rating” value (eastern black nightshade; [8]) was 85, the “Surinam Grass plant response rating” value (Surinam grass; 125 g ai/ha) was 80 and the “Plant response rating, Surinam Grass” value (Surinam grass; [7]) was 40. The “Surinam Grass plant response rating” value (Surinam grass; 250 g ai/ha) was 80, the “Foxtail, Giant plant response rating” value (giant foxtail [1]; [5]) was 10 and the “Foxtail, Giant plant response rating” value (giant foxtail [1]; [6]) was 80. The “Plant response rating, Foxtail, Giant” value (giant foxtail [1]; [7]) was 10, the “Foxtail, Giant plant response rating” value (giant foxtail [1]; [8]) was 80 and the “Plant response rating, Ducksalad” value (duck salad; [9]) was 70. For the same molecule, the “Plant response rating, Ducksalad” value (duck salad; [10]) was 85, the “Goosegrass plant response rating” value (Goosegrass; [5]) was 100 and the “Goosegrass plant response rating” value (Goosegrass; [6]) was 100. For the same molecule, the “Plant response rating, Goosegrass” value (Goosegrass; [7]) was 98, the “Goosegrass plant response rating” value (Goosegrass; [8]) was 100 and the “Johnsongrass plant response rating” value (johnsongrass; [5]) was 100. For the same molecule, the “Johnsongrass plant response rating” value (johnsongrass; [6]) was 100, the “Plant response rating, Johnsongrass” value (johnsongrass; [7]) was 70 and the “Johnsongrass plant response rating” value (johnsongrass; [8]) was 100. For the same molecule, the “Plant response rating, Pigweed” value (redroot pigweed; Postemergence, 125 g ai/ha) was 10, the “Pigweed plant response rating” value (redroot pigweed; [11]) was 60 and the “Pigweed plant response rating” value (redroot pigweed; [12]) was 90. The “Plant response rating, Pigweed” value (redroot pigweed; Preemergence, 500 g ai/ha) was 100, the “Plant response rating, Wheat” value (wheat; Postemergence, 125 g ai/ha) was 0 and the “Wheat plant response rating” value (wheat; [11]) was 30. For the same molecule, the “Wheat plant response rating” value (wheat; [12]) was 0, the “Plant response rating, Wheat” value (wheat; Preemergence, 500 g ai/ha) was 50 and the “Ragweed plant response rating” value (common ragweed; [5]) was 70. For the same molecule, the “Ragweed plant response rating” value (common ragweed; [6]) was 95, the “Plant response rating, Ragweed” value (common ragweed; [7]) was 60 and the “Ragweed plant response rating” value (common ragweed; [8]) was 100. For the same molecule, the “Plant response rating, Foxtail, Giant” value (giant foxtail [2]; Postemergence, 125 g ai/ha) was 70, the “Foxtail, Giant plant response rating” value (giant foxtail [2]; [11]) was 90 and the “Foxtail, Giant plant response rating” value (giant foxtail [2]; [12]) was 90. For the same molecule, the “Plant response rating, Foxtail, Giant” value (giant foxtail [2]; Preemergence, 500 g ai/ha) was 100, the “Plant response rating, Velvetleaf” value (velvetleaf [3]; Postemergence, 125 g ai/ha) was 0 and the “Velvetleaf plant response rating” value (velvetleaf [3]; [11]) was 50. The “Velvetleaf plant response rating” value (velvetleaf [3]; [12]) was 0, the “Plant response rating, Velvetleaf” value (velvetleaf [3]; Preemergence, 500 g ai/ha) was 60 and the “Plant response rating, Corn” value (corn; Postemergence, 125 g ai/ha) was 0. For the same molecule, the “Corn plant response rating” value (corn; [11]) was 0, the “Corn plant response rating” value (corn; [12]) was 0 and the “Plant response rating, Corn” value (corn; Preemergence, 500 g ai/ha) was 30. The “Lambsquarters plant response rating” value (lambsquarters; [5]) was 100, the “Lambsquarters plant response rating” value (lambsquarters; [6]) was 100 and the “Plant response rating, Lambsquarters” value (lambsquarters; [7]) was 50. For the same molecule, the “Lambsquarters plant response rating” value (lambsquarters; [8]) was 100, the “Oat, Wild plant response rating” value (wild oat; [5]) was 40 and the “Oat, Wild plant response rating” value (wild oat; [6]) was 60. The “Plant response rating, Oat, Wild” value (wild oat; [7]) was 40, the “Oat, Wild plant response rating” value (wild oat; [8]) was 90 and the “Plant response rating, Barnyardgrass” value (barnyardgrass; [9]) was 0. The “Plant response rating, Barnyardgrass” value (barnyardgrass; [10]) was 65, the “Bermudagrass plant response rating” value (bermudagrass; 62 g ai/ha, Preemergence, scale 0 to 100 (0 no effect, 100 complete control)) was 100 and the “Bermudagrass plant response rating” value (bermudagrass; [6]) was 100. The “Plant response rating, Bermudagrass” value (bermudagrass; [7]) was 80, the “Bermudagrass plant response rating” value (bermudagrass; [8]) was 100 and the “Plant response rating, Rice” value (rice; [9]) was 0. For the same molecule, the “Plant response rating, Rice” value (rice; [10]) was 20, the “Velvetleaf plant response rating” value (velvetleaf [4]; [5]) was 30 and the “Velvetleaf plant response rating” value (velvetleaf [4]; [6]) was 40. The “Plant response rating, Velvetleaf” value (velvetleaf [4]; [7]) was 0 and the “Velvetleaf plant response rating” value (velvetleaf [4]; [8]) was 70.

From patent US20100298141A1, “SUBSTITUTED PYRIDINE N-OXIDE HERBICIDES” (E. I. DU PONT DE NEMOURS AND COMPANY, priority 2007, published 2010)
